Source: patent publication US8415272B2, “Quinoline derivatives and their use as fungicides” (Syngenta Crop Protection LLC, priority 2008, dated 2013)

What was measured:
[1] = test system: Septoria tritici; assay: Growth inhibition in nutrient broth, Septoria tritici (leaf blotch), photometric; format: cell-based; conditions: Zymoseptoria tritici, PDB broth, 24 C, 72 hrs, read-out: control of fungal infection, Septoria tritici
[2] = test system: Botrytis cinerea; assay: Leaf disk assay, Botrytis cinerea (grey mould) on bean, preventive; format: in vivo; conditions: foliar, 96 h, bean leaf disks, assessed four days after inoculation, read-out: control of fungal infection, Botrytis cinerea
[3] = test system: Pythium ultimum; assay: Growth inhibition in potato dextrose broth, Pythium ultimum (damping off), photometric; format: cell-based; conditions: Globisporangium ultimum, 24° C., 48 hours, read-out: control of fungal infection, Pythium ultimum
Procedure, shortened: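 Growth inhibition was read photometrically at 48 hours after incubation at 24° C. Test compound was diluted from DMSO to 20 ppm in water and combined with potato dextrose broth seeded with Pythium ultimum mycelial fragments.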

[4] = test system: Phytophthora infestans; assay: whole plant or invertebrate; format: in vivo; conditions: in Solanum lycopersicum, foliar, 96 h, read-out: control of fungal infection, Phytophthora infestans
[5] = test system: Plasmopara viticola; assay: Leaf disk assay, Plasmopara viticola (downy mildew of grapevine), preventive; format: in vivo; conditions: foliar, 168 h, grapevine leaf disks, assessed seven days after inoculation, read-out: control of fungal infection, Plasmopara viticola
[6] = test system: Erysiphe graminis f.sp. tritici; assay: Leaf disk assay, Erysiphe graminis f.sp. tritici (wheat powdery mildew), preventive; format: in vivo; conditions: Blumeria graminis, foliar, 96 h, wheat leaf segments, assessed four days after inoculation, read-out: control of fungal infection, Erysiphe graminis f.sp. tritici
Procedure, shortened: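 Preventive protocol: compound at 200 ppm in water (from DMSO) sprayed onto wheat leaf segments on agar, dried 12–24 h, then spore-inoculated. Fungicidal activity was assessed four days post-inoculation.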

[7] = test system: Fusarium culmorum; assay: Growth inhibition in nutrient broth, Fusarium culmorum (root rot), photometric; format: cell-based; conditions: 48 h, read-out: control of fungal infection, Fusarium culmorum
Procedure, shortened: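 Fusarium culmorum conidia in potato dextrose broth were added to compounds in DMSO. Plates were incubated at 24 C for 48 hrs, with growth inhibition read photometrically. […]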

[8] = test system: Septoria nodorum; assay: Leaf disk assay, Septoria nodorum (wheat glume blotch), preventive; format: in vivo; conditions: Parastagonospora nodorum, foliar, 96 h, wheat leaf segments, assessed four days after inoculation, read-out: control of fungal infection, Septoria nodorum
[9] = test system: Pyrenophora teres; assay: Leaf disk assay, Pyrenophora teres (barley net blotch), preventive; format: in vivo; conditions: foliar, 96 h, barley leaf segments, assessed four days after inoculation, read-out: control of fungal infection, Pyrenophora teres
Experimental: The compounds were tested in a leaf disk assay, with methods described below. The test compounds were dissolved in DMSO and diluted into water to 200 ppm. In the case of the test on Pythium ultimum, they were dissolved in DMSO and diluted into water to 20 ppm. Pyrenophora teres (barley net blotch): Barley leaf segments were placed on agar in a 24-well plate and sprayed with a solution of the test compound. After allowing to dry completely, for between 12 and 24 hours, the leaf disks were inoculated with a spore suspension of the fungus. After appropriate incubation the activity of a compound was assessed four days after inoculation as preventive fungicidal activity.

[10] = test system: Puccinia recondita f.sp. tritici; assay: Leaf disk assay, Puccinia recondita f.sp. tritici (wheat brown rust), preventive; format: in vivo; conditions: foliar, 216 h, wheat leaf segments, assessed nine days after inoculation, read-out: control of fungal infection, Puccinia recondita f.sp. tritici

CSC(Oc1cc(C)c2ncc(C#CCO)cc2c1)C(=O)NC(C)(C)C (stereo not drawn) [Example 17]
≥ 60%: inhibition of growth at 60 ppm [1] | pest or weed control at 200 ppm [2] | inhibition of growth at 20 ppm [3] | pest or weed control at 200 ppm [4] | pest or weed control at 200 ppm [5]

C#Cc1cnc2c(Cl)cc(OC(SC)C(=O)NC(C)(C)C#CC)cc2c1 (stereo not drawn) [Example 20]
≥ 60%: inhibition of growth at 60 ppm [1] | pest or weed control at 200 ppm [2] | inhibition of growth at 20 ppm [3] | pest or weed control at 200 ppm [6] | pest or weed control at 200 ppm [4] | inhibition of growth at 60 ppm [7] | pest or weed control at 200 ppm [8] | pest or weed control at 200 ppm [9] | pest or weed control at 200 ppm [10] | pest or weed control at 200 ppm [5]

COCC#CC(C)(C)NC(=O)C(Oc1cc(C)c2ncc(C#CCO)cc2c1)SC (stereo not drawn) [Example 28]
≥ 60%: pest or weed control at 200 ppm [2] | inhibition of growth at 20 ppm [3] | pest or weed control at 200 ppm [4]

C#CCOCC(C)(C)NC(=O)C(Oc1ccc2ncc(C#C)cc2c1)SC (stereo not drawn) [Example 30]
≥ 60%: inhibition of growth at 60 ppm [1] | pest or weed control at 200 ppm [2] | inhibition of growth at 20 ppm [3] | pest or weed control at 200 ppm [6] | pest or weed control at 200 ppm [4] | inhibition of growth at 60 ppm [7] | pest or weed control at 200 ppm [8] | pest or weed control at 200 ppm [9] | pest or weed control at 200 ppm [10] | pest or weed control at 200 ppm [5]

COCC#Cc1cnc2ccc(OC(SC)C(=O)NC(C)(C)C#CCOC)cc2c1 (stereo not drawn) [Example 44]
≥ 60%: inhibition of growth at 60 ppm [1] | pest or weed control at 200 ppm [2] | inhibition of growth at 20 ppm [3] | pest or weed control at 200 ppm [6] | pest or weed control at 200 ppm [4] | pest or weed control at 200 ppm [5]

CC#CC(C)(C)NC(=O)C(Oc1ccc2ncc(C#CCOC)cc2c1)SC (stereo not drawn) [Example 45]
≥ 60%: inhibition of growth at 60 ppm [1] | pest or weed control at 200 ppm [2] | inhibition of growth at 20 ppm [3] | pest or weed control at 200 ppm [6] | pest or weed control at 200 ppm [4] | pest or weed control at 200 ppm [5]

CC#Cc1cnc2ccc(OC(SC)C(=O)NC(C)(C)C#CC)cc2c1 (stereo not drawn) [Example 56]
≥ 60%: inhibition of growth at 60 ppm [1] | pest or weed control at 200 ppm [2] | inhibition of growth at 20 ppm [3] | pest or weed control at 200 ppm [6] | pest or weed control at 200 ppm [4] | pest or weed control at 200 ppm [8] | pest or weed control at 200 ppm [5]

C#CCOCC#CC(C)(C)NC(=O)C(Oc1cc(Cl)c2ncc(C#C)cc2c1)SC (stereo not drawn) [Example 63]
≥ 60%: inhibition of growth at 60 ppm [1] | pest or weed control at 200 ppm [2] | inhibition of growth at 20 ppm [3] | pest or weed control at 200 ppm [6] | pest or weed control at 200 ppm [4] | pest or weed control at 200 ppm [8] | pest or weed control at 200 ppm [9] | pest or weed control at 200 ppm [10] | pest or weed control at 200 ppm [5]

C#Cc1cnc2c(Br)cc(OC(SC)C(=O)NC(C)(C)C#CCOC)cc2c1 (stereo not drawn) [Example 70]
≥ 60%: inhibition of growth at 60 ppm [1] | pest or weed control at 200 ppm [2] | inhibition of growth at 20 ppm [3] | pest or weed control at 200 ppm [6] | pest or weed control at 200 ppm [4] | pest or weed control at 200 ppm [8] | pest or weed control at 200 ppm [9] | pest or weed control at 200 ppm [10] | pest or weed control at 200 ppm [5]

C#CCOCCC(C)(C#N)NC(=O)C(Oc1ccc2ncc(C#C)cc2c1)SC (stereo not drawn) [Example 72]
≥ 60%: inhibition of growth at 60 ppm [1] | pest or weed control at 200 ppm [2] | inhibition of growth at 20 ppm [3] | pest or weed control at 200 ppm [6] | pest or weed control at 200 ppm [4] | pest or weed control at 200 ppm [8] | pest or weed control at 200 ppm [9] | pest or weed control at 200 ppm [10] | pest or weed control at 200 ppm [5]

C#Cc1cnc2c(C)cc(OC(SC)C(=O)NC(C)(C)C=O)cc2c1 (stereo not drawn) [Example 73]
≥ 60%: inhibition of growth at 60 ppm [1] | pest or weed control at 200 ppm [2] | inhibition of growth at 20 ppm [3] | pest or weed control at 200 ppm [6] | pest or weed control at 200 ppm [4] | pest or weed control at 200 ppm [8] | pest or weed control at 200 ppm [9] | pest or weed control at 200 ppm [5]

CC#CC(C)(C)NC(=O)C(OC)Oc1ccc2ncc(C#C[Si](C)(C)C)cc2c1 (stereo not drawn) [Example 79]
≥ 60%: inhibition of growth at 60 ppm [1] | pest or weed control at 200 ppm [2] | pest or weed control at 200 ppm [6] | pest or weed control at 200 ppm [4] | pest or weed control at 200 ppm [5]

C#Cc1cnc2cc(F)c(OC(SC)C(=O)NC(C)(C)C)cc2c1 (stereo not drawn) [Example 104]
≥ 60%: inhibition of growth at 60 ppm [1] | inhibition of growth at 20 ppm [3] | pest or weed control at 200 ppm [6] | pest or weed control at 200 ppm [4] | inhibition of growth at 60 ppm [7] | pest or weed control at 200 ppm [8] | pest or weed control at 200 ppm [9] | pest or weed control at 200 ppm [10] | pest or weed control at 200 ppm [5]

C#Cc1cnc2cc(F)c(OC(SC)C(=O)NC(C)(C)C#C)cc2c1 (stereo not drawn) [Example 106]
≥ 60%: inhibition of growth at 60 ppm [1] | inhibition of growth at 20 ppm [3] | pest or weed control at 200 ppm [6] | pest or weed control at 200 ppm [4] | inhibition of growth at 60 ppm [7] | pest or weed control at 200 ppm [8] | pest or weed control at 200 ppm [9] | pest or weed control at 200 ppm [10] | pest or weed control at 200 ppm [5]

C#Cc1cnc2ccc(OC(SC)C(=O)NC(C)(C)C#CCC)cc2c1 (stereo not drawn) [Example 117]
≥ 60%: inhibition of growth at 60 ppm [1] | inhibition of growth at 20 ppm [3] | pest or weed control at 200 ppm [6] | pest or weed control at 200 ppm [4] | inhibition of growth at 60 ppm [7] | pest or weed control at 200 ppm [8] | pest or weed control at 200 ppm [9] | pest or weed control at 200 ppm [10] | pest or weed control at 200 ppm [5]

C#Cc1cnc2c(Br)cc(OC(SC)C(=O)NC(C)(C)C#C)cc2c1 (stereo not drawn) [Example 130]
≥ 60%: inhibition of growth at 60 ppm [1] | inhibition of growth at 20 ppm [3] | pest or weed control at 200 ppm [6] | pest or weed control at 200 ppm [4] | inhibition of growth at 60 ppm [7] | pest or weed control at 200 ppm [8] | pest or weed control at 200 ppm [9] | pest or weed control at 200 ppm [10] | pest or weed control at 200 ppm [5]

C#Cc1cnc2c(Br)cc(OC(SC)C(=O)NC(C)(C)C#CC)cc2c1 (stereo not drawn) [Example 131]
≥ 60%: inhibition of growth at 60 ppm [1] | inhibition of growth at 20 ppm [3] | pest or weed control at 200 ppm [6] | pest or weed control at 200 ppm [4] | inhibition of growth at 60 ppm [7] | pest or weed control at 200 ppm [8] | pest or weed control at 200 ppm [9] | pest or weed control at 200 ppm [10] | pest or weed control at 200 ppm [5]

C#Cc1cnc2c(Br)cc(OC(SC)C(=O)NC(C)(C)C)cc2c1 (stereo not drawn) [Example 132]
≥ 60%: inhibition of growth at 60 ppm [1] | inhibition of growth at 20 ppm [3] | pest or weed control at 200 ppm [6] | pest or weed control at 200 ppm [4] | inhibition of growth at 60 ppm [7] | pest or weed control at 200 ppm [8] | pest or weed control at 200 ppm [9] | pest or weed control at 200 ppm [10] | pest or weed control at 200 ppm [5]

C#Cc1cnc2c(F)c(F)c(OC(SC)C(=O)NC(C)(C)C)cc2c1 (stereo not drawn) [Example 219]
≥ 60%: inhibition of growth at 60 ppm [1] | inhibition of growth at 20 ppm [3] | pest or weed control at 200 ppm [6] | pest or weed control at 200 ppm [4] | inhibition of growth at 60 ppm [7] | pest or weed control at 200 ppm [8] | pest or weed control at 200 ppm [9] | pest or weed control at 200 ppm [10] | pest or weed control at 200 ppm [5]
